Data on 20 compounds can be found in US7456167B2, “Cyclopropyl fused indolobenzazepine HCV NS5B inhibitors” (Bristol-Myers Squibb Company, priority 2006, dated 2008).

Like-named read-outs stand apart in the source and are kept apart here.

In test [1] the test system is HCV replicon cells. In words: HCV replicon FRET assay. As to conditions: HCV replicon cells, FRET assay, read-out: EC50. Format: cell-based. An excerpt: FRET Assay Preparation. To perform the HCV FRET screening assay, 96-well cell culture plates were used. The FRET peptide (Anaspec, Inc.) (Taliani et al., Anal. Biochem. 1996, 240, 60-67) contains a fluorescence donor, EDANS, near one end of the peptide and an acceptor, DABCYL, near the other end. The fluorescence of the peptide is quenched by […] resonance energy transfer (RET) between the donor and the acceptor, but as the NS3 protease cleaves the peptide the products are released from RET quenching and the fluorescence of the donor becomes apparent. The assay reagent was made as follows: 5× cell Luciferase cell culture lysis reagent from Promega (#E153A) diluted to 1× with dH2O, NaCl added to 150 mM final, the FRET peptide diluted to 20 uM final from a 2 mM stock.
To prepare plates, HCV replicon cells, with or without a Renilla luciferase reporter gene, were trypsinized and placed into each well of a 96-well plate with titrated test compounds added in columns 3 through 12; columns 1 and 2 contained a control compound (HCV protease inhibitor), and the bottom row contained cells without compound. The plates were then placed in a CO2 incubator at 37° C.
Assays. Subsequent to addition of the test compounds described above (FRET Assay Preparation), at various times the plate was removed and Alamar blue solution (Trek Diagnostics, #00-100) was added per well as a measure of cellular toxicity. After reading in a Cytoflour 4000 instrument (PE Biosystems), plates were rinsed with PBS and then used for FRET assay by the addition of 30 ul of the FRET peptide assay reagent described above (FRET Assay Preparation) per well. The plate was then placed into the Cytoflour 4000 instrument which had been set to 340 excite/490 emission, automatic mode for 20 cycles and the plate read in a kinetic mode. Typically, the signal to noise using an endpoint analysis after the reads was at least three-fold. Alternatively, after Alamar blue reading, plates were rinsed with PBS, 50 ul of DMEM (high glucose) without phenol red was added and plates were then used for luciferase assay using the Promega Dual-Glo Luciferase Assay System.
Compound analysis was determined by quantification of the relative HCV replicon inhibition and the relative cytotoxicity values. To calculate cytoxicity values, the average Alamar Blue fluorescence signals from the control wells were set as 100% non-toxic. The individual signals in each of the compound test wells were then divided by the average control signal and multiplied by 100% to determine […]. To calculate the HCV replicon inhibition values, an average background value was obtained from the two wells containing the highest amount of HCV protease inhibitor at the end of the assay period. These numbers were similar to those obtained from naïve Huh-7 cells.
The background numbers were then subtracted from the average signal obtained from the control wells and this number was used as 100% activity. The individual signals in each of the compound test wells were then divided by the averaged control values after background subtraction and multiplied by 100% to determine percent activity. EC50 values for a protease inhibitor titration were calculated as the concentration which caused a 50% reduction in FRET or luciferase activity. The two numbers generated for the compound plate, percent cytoxicity and percent activity were used to determine compounds of interest for further analysis.

The target of test [2] is T1, HCV NS5B RdRp genotype 1b (Hepatitis C virus genotype 1b, UniProt Q9WMX2).
T1 construct: The protein was expressed with an 18 amino acid C-terminal truncation to enhance the solubility; made in house; host or cells: E. coli BL21(DE3)
In words: Modified HCV NS5B RdRp enzyme assay (preincubation protocol). As to conditions: HCV NS5B RdRp genotype 1b; preincubation protocol; read-out: IC50. Format: biochemical. The procedure: HCV NS5B RdRp cloning, expression, and purification. The cDNA encoding the NS5B protein of HCV, genotype 1b, was cloned into the pET21a expression vector. The protein was expressed with an 18 amino acid C-terminal truncation to enhance the solubility. The E. coli competent cell line BL21(DE3) was used for expression of the protein. Cultures were grown at 37° C. for ˜4 hours until the cultures reached an optical density of 2.0 at 600 nm. The cultures were cooled to 20° C. and induced with 1 mM IPTG. Fresh ampicillin was added to a final concentration of 50 μg/ml and the cells were grown overnight at 20° C.
Cell pellets (3 L) were lysed for purification to yield 15-24 mgs of purified NS5B. The lysis buffer consisted of 20 mM Tris-HCl, pH 7.4, 500 mM NaCl, 0.5% triton X-100, 1 mM DTT, 1 mM EDTA, 20% glycerol, 0.5 mg/ml lysozyme, 10 mM MgCl2, 15 ug/ml deoxyribonuclease I, and Complete TM protease inhibitor tablets (Roche). After addition of the lysis buffer, frozen cell pellets were resuspended using a tissue homogenizer. To reduce the viscosity of the sample, aliquots of the lysate were sonicated on ice using a microtip attached to a Branson sonicator. The sonicated lysate was centrifuged at 100,000×g for 1 hr at 4° C. and filtered through a 0.2 μm filter unit (Corning).
The protein was purified using three sequential chromatography steps: Heparin sepharose CL-6B, polyU sepharose 4B, and Hitrap SP sepharose (Pharmacia). The chromatography buffers were identical to the lysis buffer but contained no lysozyme, deoxyribonuclease I, MgCl2 or protease inhibitor and the NaCl concentration of the buffer was adjusted according to the requirements for charging the protein onto the column. Each column was eluted with a NaCl gradient which varied in length from 5-50 column volumes depending on the column type. After the final chromatography step, the resulting purity of the enzyme is >90% based on SDS-PAGE analysis. The enzyme was aliquoted and stored at −80° C.
Standard HCV NS5B RdRp enzyme assay. HCV RdRp genotype 1b assays were run in a final volume of 60 μl in 96 well plates (Costar 3912). The assay buffer is composed of 20 mM Hepes, pH 7.5, 2.5 mM KCl, 2.5 mM MgCl2, 1 mM DTT, 1.6 U RNAse inhibitor (Promega N2515), 0.1 mg/ml BSA (Promega R3961), and 2% glycerol. All compounds were serially diluted (3-fold) in DMSO and diluted further in water such that the final concentration of DMSO in the assay was 2%. HCV RdRp genotype 1b enzyme was used at a final concentration of 28 nM. A polyA template was used at 6 nM, and a biotinylated oligo-dT12 primer was used at 180 nM final concentration. Template was obtained commercially (Amersham 27-4110). Biotinylated primer was prepared by Sigma Genosys. 3H-UTP was used at 0.6 μCi (0.29 μM total UTP). Reactions were initiated by the addition of enzyme, incubated at 30° C. for 60 min, and stopped by adding 25 μl of 50 mM EDTA containing SPA beads (4 μg/μl, Amersham RPNQ 0007). Plates were read on a Packard Top Count NXT after >1 hr incubation at room temperature.
Modified HCV NS5B RdRp enzyme assay. A modified enzyme assay was performed essentially as described for the standard enzyme assay except for the following: The biotinylated oligo dT12 primer was precaptured on streptavidin-coated SPA beads by mixing primer and beads in assay buffer and incubating at room temperature for one hour. Unbound primer was removed after centrifugation. The primer-bound beads were resuspended in 20 mM Hepes buffer, pH 7.5 and used in the assay at final concentrations of 20 nM primer and 0.67 μg/μl beads. Order of addition in the assay: enzyme (14 nM) was added to diluted compound followed by the addition of a mixture of template (0.2 nM), 3H-UTP (0.6 μCi, 0.29 μM), and primer-bound beads, to initiate the reaction; concentrations given are final. Reactions were allowed to proceed for 4 hours at 30° C.
IC50 values for compounds were determined using seven different [I]. […]

T1 sequence (Q9WMX2 2420-2992): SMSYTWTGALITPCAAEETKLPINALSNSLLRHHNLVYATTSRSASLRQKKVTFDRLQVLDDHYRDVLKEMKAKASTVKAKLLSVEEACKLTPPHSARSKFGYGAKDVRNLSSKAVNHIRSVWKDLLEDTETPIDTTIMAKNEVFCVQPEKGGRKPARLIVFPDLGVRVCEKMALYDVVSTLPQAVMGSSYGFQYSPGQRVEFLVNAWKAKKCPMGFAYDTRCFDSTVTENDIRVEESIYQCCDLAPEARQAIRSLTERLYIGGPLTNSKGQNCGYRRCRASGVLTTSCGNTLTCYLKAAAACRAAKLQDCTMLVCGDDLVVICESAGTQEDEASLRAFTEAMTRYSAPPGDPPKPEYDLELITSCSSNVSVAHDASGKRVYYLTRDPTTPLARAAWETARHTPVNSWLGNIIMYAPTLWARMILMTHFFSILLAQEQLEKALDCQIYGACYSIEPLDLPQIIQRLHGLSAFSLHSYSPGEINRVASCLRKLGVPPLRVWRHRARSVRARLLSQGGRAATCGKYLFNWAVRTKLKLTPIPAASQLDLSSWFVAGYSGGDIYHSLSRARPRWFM

On to `CCS(=O)(=O)C1Cc2ccccc2-c2c(C3CCCCC3)c3ccc(C(=O)O)cc3n2C1` (stereo not shown), for which the EC50 in test [1] (Hepatitis C virus) is 20 to 1000 nM. Moreover, in test [2], the IC50 was 20 to 1000 nM.
For `CCS(=O)(=O)C1Cc2ccccc2-c2c(C3CCCCC3)c3ccc(C(=O)NS(=O)(=O)N(C)C)cc3n2C1` (stereo not shown), in test [1] (Hepatitis C virus), the EC50 lay within 20 to 1000 nM. For the same compound, the IC50 in test [2] lay in the range of 20 to 1000 nM.
For the compound `COc1ccc2c(c1)C1CC1(S(=O)(=O)N1C[C@@H](C)O[C@@H](C)C1)Cn1c-2c(C2CCCCC2)c2ccc(C(=O)NS(=O)(=O)N(C)C)cc21` (stereo partly shown), the EC50 in test [1] (Hepatitis C virus) is 20 to 1000 nM. Moreover, in test [2], the IC50 was in the range of 20 to 1000 nM.
As to `COc1ccc2c(c1)C1CC1(S(=O)(=O)N1CCN(S(C)(=O)=O)CC1)Cn1c-2c(C2CCCCC2)c2ccc(C(=O)NS(=O)(=O)N(C)C)cc21` (stereo not shown), the EC50 in test [1] (Hepatitis C virus) lay within 20 to 1000 nM. For the same compound, the IC50 in test [2] was 20 to 1000 nM.
Regarding `COc1ccc2c(c1)C1CC1(S(=O)(=O)N1CCCN(C)CC1)Cn1c-2c(C2CCCCC2)c2ccc(C(=O)NS(=O)(=O)N(C)C)cc21` (stereo not shown), the EC50 in test [1] (Hepatitis C virus) is 20 to 1000 nM. Further, in test [2], the IC50 is 20 to 1000 nM.
For the compound `COc1ccc2c(c1)C1CC1(S(=O)(=O)N(C)C)Cn1c-2c(C2CCCCC2)c2ccc(C(=O)NS(=O)(=O)N(C)C)cc21` (stereo not shown), the EC50 in test [1] (Hepatitis C virus) was 20 to 1000 nM. In addition, the IC50 in test [2] is 20 to 1000 nM.
On to `COc1ccc2c(c1)C1CC1(S(=O)(=O)N(C)CCN(C)C)Cn1c-2c(C2CCCCC2)c2ccc(C(=O)NS(=O)(=O)N(C)C)cc21` (stereo not shown), for which the EC50 in test [1] (Hepatitis C virus) was 20 to 1000 nM. Besides, the IC50 in test [2] is 20 to 1000 nM.
As for `COc1ccc2c(c1)C1CC1(S(=O)(=O)N(C)CC(=O)N1CCOCC1)Cn1c-2c(C2CCCCC2)c2ccc(C(=O)NS(=O)(=O)N(C)C)cc21` (stereo not shown), in test [1] (Hepatitis C virus), the EC50 lay within 20 to 1000 nM. The IC50 in test [2] was in the range of 20 to 1000 nM.
On to `COc1ccc2c(c1)C1CC1(S(=O)(=O)N1C3CC1CN(C)C3)Cn1c-2c(C2CCCCC2)c2ccc(C(=O)NS(=O)(=O)C3CC3)cc21` (stereo not shown), for which the EC50 in test [1] (Hepatitis C virus) is 20 to 1000 nM. Further, the IC50 in test [2] fell in the range of 20 to 1000 nM.
As to `COc1ccc2c(c1)C1CC1(S(=O)(=O)N1C3CC1CN(C)C3)Cn1c-2c(C2CCCCC2)c2ccc(C(=O)NS(=O)(=O)N3CCOCC3)cc21` (stereo not shown), the EC50 in test [1] (Hepatitis C virus) fell in the range of 20 to 1000 nM. The IC50 in test [2] lay within 20 to 1000 nM.
For the compound `COc1ccc2c(c1)C1CC1(S(=O)(=O)N1CCC1)Cn1c-2c(C2CCCCC2)c2ccc(C(=O)NS(=O)(=O)N3CCOCC3)cc21` (stereo not shown), the EC50 in test [1] (Hepatitis C virus) is 20 to 1000 nM. For the same compound, in test [2], the IC50 was in the range of 20 to 1000 nM.
Regarding `COc1ccc2c(c1)C1CC1(S(=O)(=O)N1C3CC1CN(C)C3)Cn1c-2c(C2CCCCC2)c2ccc(C(=O)NS(=O)(=O)C(C)C)cc21` (stereo not shown), the EC50 in test [1] (Hepatitis C virus) was 20 to 1000 nM. For the same compound, the IC50 in test [2] fell in the range of 20 to 1000 nM.
As to `COc1ccc2c(c1)C1CC1(S(=O)(=O)N1CCN3CCC1CC3)Cn1c-2c(C2CCCCC2)c2ccc(C(=O)NS(=O)(=O)C(C)C)cc21` (stereo not shown), in test [1] (Hepatitis C virus), the EC50 is 20 to 1000 nM. In test [2], the IC50 was 20 to 1000 nM.
Take `COc1ccc2c(c1)C1CC1(S(=O)(=O)N1CCN3CCC1CC3)Cn1c-2c(C2CCCCC2)c2ccc(C(=O)NS(=O)(=O)N(C)C)cc21` (stereo not shown): the EC50 in test [1] (Hepatitis C virus) is 20 to 1000 nM. The half-inhibitory concentration (IC50) in test [2] was 20 to 1000 nM.
`CCN1CC2CC1CN2S(=O)(=O)C12CC1c1cc(OC)ccc1-c1c(C3CCCCC3)c3ccc(C(=O)NS(=O)(=O)C(C)C)cc3n1C2` (stereo not shown): the EC50 in test [1] (Hepatitis C virus) is 20 to 1000 nM. The IC50 in test [2] lay in the range of 20 to 1000 nM.
In the case of `CCN1CC2CC1CN2S(=O)(=O)C12CC1c1cc(OC)ccc1-c1c(C3CCCCC3)c3ccc(C(=O)NS(=O)(=O)N4CCOCC4)cc3n1C2` (stereo not shown), the EC50 in test [1] (Hepatitis C virus) is 20 to 1000 nM. The IC50 in test [2] lay within 20 to 1000 nM.
For the compound `CCN1CC2CC1CN2S(=O)(=O)C12CC1c1cc(OC)ccc1-c1c(C3CCCCC3)c3ccc(C(=O)NS(=O)(=O)N(C)C)cc3n1C2` (stereo not shown), the EC50 in test [1] (Hepatitis C virus) is 20 to 1000 nM. Also, the IC50 in test [2] lay within 20 to 1000 nM.
For `COC[C@@H]1CN(S(=O)(=O)C23CC2c2cc(OC)ccc2-c2c(C4CCCCC4)c4ccc(C(=O)NS(=O)(=O)C(C)C)cc4n2C3)CCO1` (stereo partly shown), in test [1] (Hepatitis C virus), the EC50 was in the range of 20 to 1000 nM. The IC50 in test [2] lay in the range of 20 to 1000 nM.
In the case of `COc1ccc2c(c1)C1CC1(S(=O)(=O)N1CCN3CCCC3C1)Cn1c-2c(C2CCCCC2)c2ccc(C(=O)NS(=O)(=O)N3CCOCC3)cc21` (stereo not shown) [drawing 64], in test [1] (Hepatitis C virus), the EC50 lay within 20 to 1000 nM. In test [2], the IC50 fell in the range of 20 to 1000 nM.
In the case of `COc1ccc2c(c1)C1CC1(S(=O)(=O)N1CCN3CCCC3C1)Cn1c-2c(C2CCCCC2)c2ccc(C(=O)NS(=O)(=O)N3CCOCC3)cc21` (stereo not shown) [drawing 65], the EC50 in test [1] lay in the range of 20 to 1000 nM. In test [2], the IC50 is 20 to 1000 nM.

What is called EC50 is the concentration at which the effect is half-maximal. In general, IC50 refers to the concentration at which inhibition is half-maximal.
